According to patent US20120040920A1, “OLIGOSACCHARIDE ALDONIC ACIDS AND THEIR TOPICAL USE” (priority 1999, published 2012):

Columns and labels:
[1] = antioxidant property, hydroquinone test method; format: physicochemical; conditions: oil-in-water cream, 2% hydroquinone, test substance 0.4 M, room temperature, 5 days
From the text: (§1) An antioxidant may be defined as a substance capable of preventing or inhibiting oxidation. […] The antioxidant property is readily determined by using any one of the following test methods: prevention or retardation of air oxidation of (a) anthralin, (b) hydroquinone, or (c) banana peel. A freshly prepared anthralin solution or cream is bright yellow, and an air oxidized one is brownish or black. A hydroquinone solution or cream is colorless or white color, and an air oxidized one is brownish or black. A freshly peeled banana peel is light yellow in color and an oxidized one ranges in color from tan, dark tan, brown to brownish black.
Antioxidant property of an oligosaccharide aldonic acid may also be determined by utilizing hydroquinone test method as follows. Hydroquinone also known as 1,4-dihydroxybenzene is a white powder, and a composition containing hydroquinone without a suitable antioxidant is chemically unstable even at room temperature. For example, hydroquinone 2% in an oil-in-water cream changed in color from white to grey within 2 hours, and the cream became light brown within 48 hours and dark brown after 72 hours at room temperature.

[2] = antioxidant property, banana peel test method; conditions: 2×2 cm peels in 5 ml 0.1 M test solution; water control tan within 4 hours
From the text: as §1
For example, in control experiments, fresh banana peels cut into sizes of 1×2 cm in 50 mm plastic petri dishes containing 5 ml water at neutral or acidic pH changed in color from white-yellowish to tan within 6 hours at room temperature, and changed to dark tan color during the next period of 24 to 72 hours.
Antioxidant property of an oligosaccharide aldonic acid may also be determined by utilizing banana peel test method as follows.
A fresh ripe banana peel cut into sizes of 2×2 cm has the outer layer light yellow in color. These freshly cut banana peels after exposed to air or immersed in an aqueous solution without an antioxidant in 50 mm plastic petri dishes rapidly changed in color from yellowish to tan within 3 hours, dark tan within 24 hours and brown black after 72 hours. A test substance including a positive control such as vitamin C, citric acid or N-acetylcysteine was prepared as 0.1 M concentration, and each test dish contained 5 ml test solution. Freshly cut banana peels 2×2 cm in sizes were immersed in 5 ml test solutions including known antioxidants and vehicle controls with pH at 7.0 and 4.0. […] The same results were also found for the known antioxidant substances; vitamin C, citric acid and N-acetylcysteine.

[3] = antioxidant property, anthralin test method; format: physicochemical; conditions: oil-in-water cream, 0.4% anthralin, test substance 0.1 M, 24 hours
From the text: as §1
Antioxidant property of an oligosaccharide aldonic acid may be determined by utilizing anthralin test method as follows.
Anthralin also known as dithranol is a yellowish powder, and a composition containing anthralin without a suitable antioxidant is chemically unstable even at room temperature. For example, anthralin 0.05% in an oil-in-water cream changed in color from yellow to gray within 24 hours at room temperature, and the cream became brownish within 48 hours. Under anhydrous condition, anthralin 0.05% ointment prepared from white petrolatum 2 parts and mineral oil 1 part by weight changed in color from bright yellow to grayish yellow within 24 hours, and the ointment became brownish after 12 days at room temperature.
Based on the above observations, an oil-in-water cream containing 0.4% anthralin with or without a known antioxidant was used as a positive or vehicle control.

[4] = gel matrix formation on evaporation of an aqueous solution at room temperature; format: physicochemical; conditions: for gel matrix formation: 1 g in 1 ml water, 20-25° C., slow evaporation; for acid content of the gel film / water retained in the gel film (gel matrix): by weight, 1 g acid in 1 ml water evaporated at room temperature; for original water evaporated: 1 g acid in 1 ml water, room temperature
From the text: In contrast to an alpha hydroxyacid and polyhydroxyacid, an oligosaccharide aldonic acid can form a gel matrix when its aqueous solution is evaporated at room temperature. The transparent gel obtained retains certain amount of water forming a clear gel matrix. The amount of water retention depends on individual oligosaccharide aldonic acid. Examples of gel matrix preparations are provided below.
In one example, a gel matrix can be formed when aqueous solution comprising an oligosaccharide aldonic acid is evaporated at room temperature. The transparent gel thus obtained retains certain amount of water forming a clear gel matrix. The amount of water retention depends on individual oligosaccharide aldonic acid. For example, maltobionic acid 1 g in a beaker was dissolved in water 1 ml, and the solution thus obtained was left at room temperature. Fifty percent of the original water had been evaporated at the end of 24 hours, and 57% at the end of 48 hours, and 60% at the end of 72 hours, and no more or minimal evaporation of water could be detected after 72 hours. A clear gel film thus obtained contained 29% water complexed with maltobionic acid molecules. In the same manner, lactobionic acid formed a clear gel matrix with 14% water molecules and cellobionic acid formed a transparent gel with 7% water molecules.
A typical experiment to determine a gel matrix formation of an oligosaccharide aldonic acid may be carried out as follows.
Maltobionic acid 1 g in a beaker of 3.6 cm diameter and 3.6 cm height was dissolved in water 1 ml, and the solution thus obtained was left at room temperature between 20-25° C. to allow a slow evaporation of the water. […] The continuous transparent film thus obtained consisted of 71% maltobionic acid and 29% water by weight, and was formed as a complex gel matrix between maltobionic acid molecules and water molecules.

[5] = test system: xerosis with flaky dry skin; assay: topical treatment of xerosis of forearms; format: in vivo, human; conditions: 5% water-in-oil cream twice daily, two weeks, person
From the text: A subject, having xerosis with flaky dry skin condition of their forearms topically applied twice daily maltobionic acid 5% water-in-oil cream for two weeks.

[6] = test system: acute erythema on thighs; assay: topical treatment of acute erythema after hot shower with alkaline soap; format: in vivo, human; conditions: 3% partially neutralized cream, left thigh, person; control side persisted
From the text: A subject with sensitive skin developed acute erythema on their both thighs after taking hot shower using alkaline soap. They applied 3% partially neutralized maltobionic acid cream on their left thigh and a control cream on their right thigh.

[7] = test system: chronic atopic eczema and pruritic dry skin; assay: topical treatment of chronic atopic eczema and pruritic dry skin; format: in vivo, human; conditions: 17% cream twice daily, person
From the text: A subject with chronic atopic eczema and pruritic dry skin topically applied twice daily maltobionic acid 17% cream to itchy skin areas of eczema and dry skin lesions for two weeks.

| gel matrix formation [4] | SMILES | colour change of hydroquinone cream [1] | colour change of banana peels [2] | colour change of anthralin cream [3] | further results |
| --- | --- | --- | --- | --- | --- |
| – | CC(=O)N[C@@H](CS)C(=O)O [N-acetylcysteine, reference compound] | did not change color | same results | – | – |
| clear continuous gel film was formed | O=C(O)[C@H](O)[C@@H](O)[C@H](O[C@@H]1O[C@H](CO)[C@@H](O)[C@H](O)[C@H]1O)[C@H](O)CO [cellobionic acid] | did not change color | – | did not change the color | acid content of the gel film [4]: 93%; water retained in the gel film (gel matrix) [4]: 7% |
| – | O=C(O)CC(O)(CC(=O)O)C(=O)O [citric acid, reference compound] | did not change color | same results | – | – |
| clear continuous gel film was formed | O=C(O)[C@H](O)[C@@H](O)[C@H](O[C@@H]1O[C@H](CO)[C@H](O)[C@H](O)[C@H]1O)[C@H](O)CO [maltobionic acid] | did not change color | did not change color | did not change the color | dry skin condition [5]: dry skin condition disappeared completely; erythema and itch [6]: disappeared within a few minutes; original water evaporated ([4]; end of 24 hours): Fifty; original water evaporated ([4]; end of 48 hours): 57%; original water evaporated ([4]; end of 72 hours): 60%; original water evaporated ([4]; end of 96 hours): 60.5%; water retained in the gel film (gel matrix) [4]: 29%; acid content of the gel film ([4]; listed as Maltobionic acid): 71%; water retained in the gel film (gel matrix) ([4]; listed as Maltobionic acid): 29%; eczema lesions ([7]; after two weeks): improved significantly; condition of treated skin ([7]; within a week): became smooth and less dry and itchy |
| – | O=C(O)C(=O)O [oxalic acid, reference compound] | – | – | did not change the color | – |
| – | O=C1O[C@H]([C@@H](O)CO)C(O)=C1O [vitamin C, reference compound] | did not change color | same results | did not change the color | – |

| SMILES | gel matrix formation [4] | colour change of hydroquinone cream [1] | colour change of banana peels [2] | colour change of anthralin cream [3] | further results |
| --- | --- | --- | --- | --- | --- |
| O=C(O)[C@H](O)[C@@H](O)[C@H](O)[C@H](O)CO [gluconic acid, reference compound] | did not form any form of a gel matrix | – | – | – | – |
